Results on 22 molecules are retold here after patent US20070099852A1, “CUCURBITACIN COMPOUNDS” (SOUTH DAKOTA STATE UNIVERSITY, priority 2005, published 2007).

A short description of series [1]: Chromatographic hydrophobicity index (CHI) by RP-HPLC in buffered methanol. Format: physicochemical. The settings on record: isochratic and gradient elution of standard mixture.
For series [2] the following is noted: gradient elution of standard mixture and correlation with published data; published CHI values; cited from earlier work.
The nature of series [3]: Chromatographic hydrophobicity index (CHI) by RP-HPLC in buffered acetonitrile. Type of series: physicochemical. The settings on record: isochratic and gradient elution of standard mixture.
Series [4] is described as follows: DPPH Stable Free Radical Scavenging Assay. Particulars: for DPPH activity at 50 μM: up to 30 minutes incubation. The protocol:
Cucurbitacin antioxidant activity was studied first by the DPPH® Stable Free Radical Scavenging Assay (Cotelle et al., Free radical Biology & Medicine 20(1): 35-43, 1996). Experimental conditions were optimized on the standard compound ascorbic acid. Data indicated 30% activity at 50 μM concentration, and 100% activity at 100 μM for ascorbic acid. While the original assay required 10 minutes incubation time for the reaction to occur, this time was increased up to 30 minutes in case cucurbitacin were reacting slower than other reagents.
Background: DPPH is a stable violet radical that fades when it is reduced.

The nature of series [5]: ABTS Radical Cation Decolorization Assay. The settings on record: 50 μM, 100 μM, and 1.8 mM; up to 2 hours. Here is the method: Cucurbitacin B activity was monitored at 50 μM, 100 μM, and 1.8 mM. The time interval was expanded up to 2 hours in case cucurbitacin B was reacting slowly.
Series [6] deals with HepG2 cells. The settings on record: for cytoprotection on HepG2 cells at 6.25% IC50: compound at 6.25% of its IC50, CCl4 4.5×10^−3 M; for cytoprotection on HepG2 cells at 12.5% IC50: compound at 12.5% of its IC50, CCl4 4.5×10^−3 M; for cytoprotection on HepG2 cells at 20% IC50: compound at 20% of its IC50, CCl4 4.5×10^−3 M; for cytoprotection on HepG2 cells at 50% IC50: compound at 50% of its IC50, CCl4 4.5×10^−3 M. The source says:
The activity of two toxins was studied first on HepG2 cells—bromobenzene (BB) and CCl4. Cells were challenged with the toxins at different concentration levels.
Experimental conditions were standardized on silybin. Cells were challenged with CCl4 (4.5×10^−3M) in presence of silybin at various concentrations.
The ratio of IC50-to-EC50 (hereafter T/A) is also indicated in this table, which gives the margin between toxic and cytoprotective concentrations.

Series [7] concerns HepG2 cells. Type of series: cell-based, human. Particulars: HepG2, toxin at 4.5×10^−3 M.
Protocol: The activity of two toxins was studied first on HepG2 cells—bromobenzene (BB) and CCl4. Cells were challenged with the toxins at different concentration levels. Precipitate formation was observed when BB was diluted with media prior to addition to the cells; therefore, both the precipitate and the supernatant were added separately over cells to study their toxic effect.
Series [8] relates to HSC-T6 cells. The series can be described thus: Serum-driven HSC-T6 proliferation, Experiment 1 (4 h challenge). Format: cell-based, rat. Particulars: for Experiment 1 anti-proliferation activity at 100 μM: HSC-T6, measured at 100 μM. The protocol: The proliferation effect of serum on HSC-T6 cells was optimized and cucurbitacin antiproliferative activity was measured. Serum contains a large number of growth factors, hormones and other nutrients, which help cells to grow and multiply. Several trials were conducted. In experiment 1, cells were challenged with cucurbitacin analogs for 4 h and then cells were grown in drug-free media for two additional days.
We established several experimental conditions such as 4 hours of incubation time with cucurbitacin, and 2 day cell incubation with fresh media after challenging with cucurbitacin (Exp. 1). Other experiments involved addition of cucurbitacin for 24 hours over starved cells (Exp. 2) vs. proliferating cells (Exp. 3), and one day incubation of cells with fresh media after challenge. […] Because of that, the challenge time was increased to 24 hours (Exp. 2 and 3).
We modified this approach. Our assay included a second control (ZC) supplemented with no serum intended to measure cucurbitacin anti-proliferation effect relative to the number of cells generated during challenge instead of the total number of cells present in each well.

Series [9] concerns HSC-T6 cells. The series can be described thus: Cucurbitacin cytotoxicity on HSC-T6 (Experiment 3). Particulars: 24 h. Type of series: cell-based, rat. The source says: Cytotoxicity of all cucurbitacin analogs was additionally measured in experiment 3 (Table 8).
Series [10] relates to HSC-T6 cells. The series can be described thus: PDGF-driven proliferation of HSC-T6 cells. Type of series: cell-based, rat. Particulars: HSC-T6, incubation with PDGF for 2 days; not reproducible. An excerpt:
The proliferation assay described by Zhang et al. (Zhang et al., Acta Pharmacol. Sin. 21: 253-256, 2000), was followed to determine the proliferative effect of PDGF on HSC-T6 cells, and yielded to total cell confluency prior to the addition of PDGF to the cells. Therefore, experimental conditions were changed stepwise to reduce cell confluency. When cell concentration was reduced from the initial 10,000 to 4,000 cells/well, and FBS concentration was reduced from 10 to 2%, cell confluency reached approximately 50% prior to the addition of PDGF. […] Further modifications to the initial assay were done such as increase of period of incubation or increase of PDGF concentration. Cells incubation with PDGF for 2 days indicated some degree of proliferation (0-22%), but it was not reproducible from one trial to the other.
The experimental conditions presented by Yang et al. (Yang et al., World J. Gastroenterol. 9: 2050-2053, 2003) were also examined. It involved 1-day cell starvation in serum-free media followed by 3 h challenge with drug candidates and then 2 days incubation with PDGF in serum-free media. In our study, PDGF was added at various concentration levels to starved cells and incubation period with PDGF was increased to 2-to-3 days. However, we could not achieve a stable and significant level of cell proliferation in the presence of PDGF. […]

Marks after values point to notes of the source that are not given here.

`CC(=O)c1ccccc1` [Acetophenone (21), acetophenone]: the “CHIMeOH^b (standard compounds)” value in series [1] was 52.47 ± 0.05. Moreover, in [2], the “CHIACN^c (standard compounds)” value was 64.90. Further, the “CHIACN^b (standard compounds)” value in series [3] stood at 61.93 ± 0.05.

For the molecule `Nc1ccccc1` [Aniline (28), aniline], the “CHIMeOH^b (standard compounds)” value in [1] worked out at 29.94 ± 0.05.

Take `CC(=O)OC(C)(C)/C=C/C(=O)[C@](C)(O)[C@H]1[C@H](O)C[C@@]2(C)[C@@H]3CC=C4[C@H](C[C@H](O)C(=O)C4(C)C)[C@]3(C)C(=O)C[C@]12C` [B, cucurbitacin B]: in [4], the “DPPH activity at 50 μM” value is given as “did not indicate any activity”. The ABTS activity result in series [5] is on record as “No activity”. Also, in the series on HepG2 cells [6], the “cytoprotection on HepG2 cells at 6.25% IC50” value (shortened to “cytoprotection … at 6.25% IC50”) came out at 12.45 ± 1.11, the “cytoprotection on HepG2 cells at 12.5% IC50” value (from here on “cytoprotection … at 12.5% IC50”) is recorded as 25.25 ± 1.36, the “cytoprotection on HepG2 cells at 20% IC50” value (“cytoprotection … at 20% IC50” for short) stood at 34.92 ± 2.76 and the “cytoprotection on HepG2 cells at 50% IC50” value (shortened to “cytoprotection … at 50% IC50”) worked out at 60.01 ± 0.80.

Consider `c1ccc2[nH]cnc2c1` [Benzimidazole (20), benzimidazole], for which the “CHIMeOH^b (standard compounds)” value in series [1] worked out at 41.07 ± 0.04. Also, the “CHIACN^c (standard compounds)” value in [2] was 30.71. In addition, in [3], the “CHIACN^b (standard compounds)” value came to 43.18 ± 0.12.

For the molecule `Brc1ccccc1` [Bromobenzene (29), bromobenzene], the “CHIMeOH^b (standard compounds)” value in series [1] was 69.43 + 0.07.

On to `CCCC(=O)c1ccccc1` [Butyrophenone (24), butyrophenone], for which, in [1], the “CHIMeOH^b (standard compounds)” value is given as 66.79 ± 0.05. Also, the “CHIACN^c (standard compounds)” value in series [2] was 88.49. In series [3], the “CHIACN^b (standard compounds)” value is recorded as 79.32 ± 0.14.

Take `ClC(Cl)(Cl)Cl` [CCl4]: in the series with HepG2 cells [7], the cell viability is recorded as 40%-50%.

Consider `COc1cc2c(c(OC)c1OC)-c1ccc(OC)c(=O)cc1[C@@H](NC(C)=O)CC2` [Colchicine (26), colchicine], for which the “CHIMeOH^b (standard compounds)” value in [1] was 57.56 + 0.04. In series [2], the “CHIACN^c (standard compounds)” value was 41.37.

Turning to `CC(=O)OC(C)(C)/C=C/C(=O)[C@](C)(O)[C@H]1[C@H](O)C[C@@]2(C)[C@@H]3CC=C4[C@@H](C=C(O[C@@H]5O[C@H](CO)[C@@H](O)[C@H](O)[C@H]5O)C(=O)C4(C)C)[C@]3(C)C(=O)C[C@]12C` [E-Gluc, cucurbitacin E glucoside], the “Experiment 1 anti-proliferation activity at 100 μM” value in the series with HSC-T6 cells [8] was “˜46% ^a”. For the same molecule, in the series with HepG2 cells [6], the “cytoprotection … at 6.25% IC50” value is given as −2.36 ± 1.08, the “cytoprotection … at 12.5% IC50” value worked out at 17.96 ± 1.14, the “cytoprotection … at 20% IC50” value was 49.44 ± 0.29 and the “cytoprotection … at 50% IC50” value came out at 33.92 ± 2.92.

`CC(C)(O)/C=C/C(=O)[C@](C)(O)[C@H]1[C@H](O)C[C@@]2(C)[C@@H]3CC=C4[C@@H](C=C(O)C(=O)C4(C)C)[C@]3(C)C(=O)C[C@]12C` [I, cucurbitacin I]: in the series on HepG2 cells [6], the “cytoprotection … at 6.25% IC50” value was found to be 4.55 ± 0.64, the “cytoprotection … at 12.5% IC50” value worked out at 17.50 ± 1.32, the “cytoprotection … at 20% IC50” value worked out at 50.09 ± 1.02 and the “cytoprotection … at 50% IC50” value worked out at 54.75 ± 0.29.

With `CC(C)(O)/C=C/C(=O)[C@](C)(O)C1[C@H](O)C[C@@]2(C)C3CC=C4C(C=C(O[C@@H]5O[C@H](CO)[C@@H](O)[C@H](O)[C@H]5O)C(=O)C4(C)C)[C@]3(C)C(=O)C[C@]12C` (some centres unmarked) [I-Gluc, cucurbitacin I glucoside], the “Experiment 1 anti-proliferation activity at 100 μM” value in the series on HSC-T6 cells [8] is recorded as “˜20% ^a”.

`CC(C)OC1=CC2C(=CCC3C2(C)C(=O)CC2(C)C(C(C)(O)C(=O)C=CC(C)(C)O)C(O)CC32C)C(C)(C)C1=O` (centres unmarked) [I-iPr]: in the series with HepG2 cells [6], the “cytoprotection … at 6.25% IC50” value is given as −17.10 ± 1.54, the “cytoprotection … at 12.5% IC50” value is 4.15 ± 0.48, the “cytoprotection … at 20% IC50” value was 18.69 ± 0.13 and the “cytoprotection … at 50% IC50” value turned out to be 41.73 ± 2.06.

For the molecule `CCCOC1=CC2C(=CCC3C2(C)C(=O)CC2(C)C(C(C)(O)C(=O)C=CC(C)(C)O)C(O)CC32C)C(C)(C)C1=O` (centres unmarked) [I-nPr, cucurbitacin I-nPr], in the series on HSC-T6 cells [8] (HSC-T6, measured at 2-6 μM), the “Experiment 1 anti-proliferation activity at 2-6 μM” value is “˜18% ^b”.

For `c1ccc2[nH]ccc2c1` [Indole (22), indole], in series [2], the “CHIACN^c (standard compounds)” value was 69.15. For the same molecule, the “CHIACN^b (standard compounds)” value in series [3] is reported as 67.73 + 0.13.

In the case of `Cn1c(=O)c2nc(-c3ccccc3)[nH]c2n(C)c1=O` [Ph-theophylline (27), phenyltheophylline], the “CHIMeOH^b (standard compounds)” value in [1] is 61.61 ± 0.04. The “CHIACN^c (standard compounds)” value in series [2] is 52.04.

For the molecule `CCC(=O)c1ccccc1` [Propiophenone (23), propiophenone], in series [1], the “CHIMeOH^b (standard compounds)” value is listed as 60.41 + 0.04. The “CHIACN^c (standard compounds)” value in series [2] is recorded as 78.41. The “CHIACN^b (standard compounds)” value in series [3] is recorded as 71.72 + 0.15.

For `COc1cc(C2Oc3cc([C@H]4Oc5cc(O)cc(O)c5C(=O)[C@@H]4O)ccc3OC2CO)ccc1O` (some centres unmarked) [Silybin, reference compound], the “Experiment 3 IC50 (μM, T)” value with HSC-T6 cells [9] is on record as “non”. The “Experiment 1 anti-proliferation activity at 100 μM” value in the series on HSC-T6 cells [8] is reported as “˜20% ^a”. Further, the “cell growth with silybin alone” value with HepG2 cells [6] (HepG2, silybin alone, 14 to 200 μM) was “up to 125%”. In addition, in the series with HepG2 cells [6] (silybin alone, absence of CCl4, 14 to 200 μM (FIG. 4)), the “toxicity of silybin alone on HepG2 cells” value was “no toxicity”.

`Cn1c(=O)c2[nH]cnc2n(C)c1=O` [Theophylline (19), theophylline]: in series [1], the “CHIMeOH^b (standard compounds)” value worked out at 25.76 ± 0.05. Besides, the “CHIACN^c (standard compounds)” value in series [2] was 15.76. For the same molecule, in [3], the “CHIACN^b (standard compounds)” value was determined as 32.63 ± 0.07.

In the case of `CCCCC(=O)c1ccccc1` [Valerophenone (25), valerophenone], in series [1], the “CHIMeOH^b (standard compounds)” value is 73.05 + 0.12. Further, the “CHIACN^c (standard compounds)” value in series [2] is on record as 97.67. In addition, the “CHIACN^b (standard compounds)” value in [3] is listed as 86.66 ± 0.08.

In the case of `O=C1O[C@H]([C@@H](O)CO)C(O)=C1O` [ascorbic acid], the “DPPH activity at 50 μM” value in [4] is reported as 30%. The “DPPH activity at 100 μM” value in series [4] (100 μM) came to 100%.

Consider PDGF, for which the degree of proliferation with HSC-T6 cells [10] is 0-22%.

As for cucurbitacin E, in the series on HepG2 cells [6], the “cytoprotection … at 6.25% IC50” value was 12.41 ± 0.78, the “cytoprotection … at 12.5% IC50” value is recorded as 21.72 ± 0.75, the “cytoprotection … at 20% IC50” value came to 49.21 ± 1.73 and the “cytoprotection … at 50% IC50” value was found to be 80.55 ± 6.80.
